{"source": "patent US20230049952A1", "about": "“METHODS AND COMPOUNDS FOR RESTORING MUTANT P53 FUNCTION” (PMV Pharmaceuticals, Inc., priority 2020, published 2023)", "key": {"in vitro": {"assay": "in vitro", "experimental": "All working solutions were freshly prepared similarly as described for the test article working solution.\nAssay for determining Blood to plasma ratio: Pooled male CD-1 mouse, Sprague-Dawley rat, beagle dog and cynomolgus monkey plasma, and mixed gender human blood with EDTAK2 as anticoagulant were stored on wet ice and used the same day. […] After mixing thoroughly, 0.6 mL of spiked blood was transferred to a 96-well plate in triplicate. Concurrently, control compounds were spiked into each species blood in the same fashion to generate the final concentration of 2.0 μM.\nThe rest of the spiked blood samples were immediately placed into a humidified incubator with 5% CO2 at 37° C., with constant swiveling at 500 rpm for 60 min on a platform shaker. […] The T60-plasma samples for analysis were obtained by taking 50 μL of plasma from each well, mixed with 50 μL of blank blood and 100 μL of water, followed by addition of 600 μL stop solution. […] All the T0, T60-blood and T60-plasma samples were shaken vigorously at 800 rpm for 30 min followed by the centrifugation at 3220×g at 20° C. for 20 min. 100 μL aliquot of supernatant was diluted with 100 μL of water and mixed well for LC-MS/MS analysis.\nMeasurement of Hematocrit: The hematocrit (the volume percentage of erythrocytes in blood) was determined in triplicate for each species by centrifuging the blood samples with a HAEMATOKRIT 200 at 9440×g for 5 min.\nData analysis: The ratio of compound concentrations in whole blood over plasma (KB/P) and % Recovery in blood were calculated by the following equations: KB/P=[…]([T60-blood]/[T60-plasma]), where [T60-blood] is the peak area ratios of analyte/internal standard in whole blood sample at 60 min; [T60-plasma] is the peak area ratios of analyte/internal standard in plasma sample at 60 min; [T0-blood] is the peak area ratios of analyte/internal standard in whole blood sample at time zero."}, "NUGC-3_KO_p53i": {"test_system": "NUGC-3_KO_p53i", "assay": "p53 pathway gene profiling, doxycycline-induced WT p53", "format": "cell-based, human", "settings": "doxycycline 50 ng/ml"}, "CYP2B6": {"test_system": "CYP2B6", "assay": "CYP induction in human hepatocytes (mRNA and enzyme activity)", "settings": "for % Induction Relative to Positive Control / Fold-Change: CYP2B6 enzyme activity, control article"}, "[1]": {"settings": "n=3, * basal expression level is low"}}, "data": [{"molecule": "CCN(CC)CCCC(C)Nc1ccnc2cc(Cl)ccc12", "note": "(stereo not shown) [Chloroquine, chloroquine]", "values": [{"measurement": "recovery at 60 min, 2 μM", "setting": "in vitro; both, human", "value": "90.8 ± 6.07", "unit": "%"}, {"measurement": "recovery at 60 min, 2 μM", "setting": "in vitro; male, CD-1, mouse", "value": "99.4 ± 1.7", "unit": "%"}, {"measurement": "recovery at 60 min, 2 μM", "setting": "in vitro; male, Sprague-Dawley, rat", "value": "100 ± 1.86", "unit": "%"}, {"measurement": "recovery at 60 min, 2 μM", "setting": "in vitro; male, beagle, dog", "value": "113 ± 3.57", "unit": "%"}, {"measurement": "recovery at 60 min, 2 μM", "setting": "in vitro; male, cynomolgus monkey", "value": "96.9 ± 1.83", "unit": "%"}]}, {"molecule": "C[C@H]1c2cccc(O)c2C(=O)C2=C(O)[C@]3(O)C(=O)C(C(N)=O)=C(O)[C@@H](N(C)C)[C@@H]3[C@@H](O)[C@@H]21", "note": "[Doxycycline]", "values": [{"measurement": "APAF1 fold change", "setting": "NUGC-3_KO_p53i; n=3", "value": "2.40 ± 0.16", "unit": "fold"}, {"measurement": "BAX fold change", "setting": "NUGC-3_KO_p53i; n=3", "value": "2.85 ± 0.08", "unit": "fold"}, {"measurement": "BBC3 fold change", "setting": "NUGC-3_KO_p53i; n=3", "value": "2.46 ± 0.06", "unit": "fold"}, {"measurement": "BIRC5 fold change", "setting": "NUGC-3_KO_p53i; n=3", "value": "0.52 ± 0.03", "unit": "fold"}, {"measurement": "BRCA1 fold change", "setting": "NUGC-3_KO_p53i; n=3", "value": "0.67 ± 0.03", "unit": "fold"}, {"measurement": "BRCA2 fold change", "setting": "NUGC-3_KO_p53i; n=3", "value": "0.74 ± 0.02", "unit": "fold"}, {"measurement": "CCNB1 fold change", "setting": "NUGC-3_KO_p53i; n=3", "value": "0.57 ± 0.01", "unit": "fold"}, {"measurement": "CCNE 1 fold change", "setting": "NUGC-3_KO_p53i; n=3", "value": "0.70 ± 0.01", "unit": "fold"}, {"measurement": "CCNG 1 fold change", "setting": "NUGC-3_KO_p53i; n=3", "value": "1.65 ± 0.05", "unit": "fold"}, {"measurement": "CDC25A fold change", "setting": "NUGC-3_KO_p53i; n=3", "value": "0.61 ± 0.04", "unit": "fold"}, {"measurement": "CDC25C fold change", "setting": "NUGC-3_KO_p53i; n=3", "value": "0.58 ± 0.02", "unit": "fold"}, {"measurement": "CDK1 fold change", "setting": "NUGC-3_KO_p53i; n=3", "value": "0.71 ± 0.01", "unit": "fold"}, {"measurement": "CDKN1A fold change", "setting": "NUGC-3_KO_p53i; n=3", "value": "37.37 ± 0.55", "unit": "fold"}, {"measurement": "CHEK1 fold change", "setting": "NUGC-3_KO_p53i; n=3", "value": "0.71 ± 0.02", "unit": "fold"}, {"measurement": "CHEK2 fold change", "setting": "NUGC-3_KO_p53i; n=3", "value": "0.74 ± 0.01", "unit": "fold"}, {"measurement": "DNMT1 fold change", "setting": "NUGC-3_KO_p53i; n=3", "value": "0.78 ± 0.03", "unit": "fold"}, {"measurement": "E2F1 fold change", "setting": "NUGC-3_KO_p53i; n=3", "value": "0.63 ± 0.02", "unit": "fold"}, {"measurement": "FAS fold change", "setting": "NUGC-3_KO_p53i; n=3", "value": "7.34 ± 0.04", "unit": "fold"}, {"measurement": "GADD45A fold change", "setting": "NUGC-3_KO_p53i; n=3", "value": "3.68 ± 0.20", "unit": "fold"}, {"measurement": "MDM2 fold change", "setting": "NUGC-3_KO_p53i; n=3", "value": "12.97 ± 0.29", "unit": "fold"}, {"measurement": "MSH2 fold change", "setting": "NUGC-3_KO_p53i; n=3", "value": "0.70 ± 0.02", "unit": "fold"}, {"measurement": "PIDD1 fold change", "setting": "NUGC-3_KO_p53i; n=3", "value": "2.75 ± 0.05", "unit": "fold"}, {"measurement": "PPM1D fold change", "setting": "NUGC-3_KO_p53i; n=3", "value": "2.21 ± 0.10", "unit": "fold"}, {"measurement": "PRC1 fold change", "setting": "NUGC-3_KO_p53i; n=3", "value": "0.64 ± 0.01", "unit": "fold"}, {"measurement": "SESN2 fold change", "setting": "NUGC-3_KO_p53i; n=3", "value": "2.50 ± 0.12", "unit": "fold"}, {"measurement": "TNFRSF10B fold change", "setting": "NUGC-3_KO_p53i; n=3", "value": "1.88 ± 0.04", "unit": "fold"}, {"measurement": "TNFRSF10D fold change", "setting": "NUGC-3_KO_p53i; n=3", "value": "2.73 ± 0.04", "unit": "fold"}, {"measurement": "TP53 fold change", "setting": "NUGC-3_KO_p53i; n=3", "value": "25.95 ± 0.84", "unit": "fold"}, {"measurement": "BTG2* fold change", "setting": "NUGC-3_KO_p53i; [1]", "value": "27.82 ± 2.42", "unit": "fold"}, {"measurement": "EGR1* fold change", "setting": "NUGC-3_KO_p53i; [1]", "value": "4.40 ± 0.50", "unit": "fold"}, {"measurement": "IL6* fold change", "setting": "NUGC-3_KO_p53i; [1]", "value": "1.23 ± 0.01", "unit": "fold"}]}, {"molecule": "CCC1(c2ccccc2)C(=O)NC(=O)NC1=O", "note": "[PB, phenobarbital]", "values": [{"measurement": "% Induction Relative to Positive Control", "setting": "CYP2B6; Donor 1", "value": 100, "unit": "%"}, {"measurement": "Fold-Change", "setting": "CYP2B6; Donor 1", "value": 6.84}, {"measurement": "% Induction Relative to Positive Control", "setting": "CYP2B6; Donor 2", "value": 100, "unit": "%"}, {"measurement": "Fold-Change", "setting": "CYP2B6; Donor 2", "value": 8.56}, {"measurement": "% Induction Relative to Positive Control", "setting": "CYP2B6; Donor 3", "value": 100, "unit": "%"}, {"measurement": "Fold-Change", "setting": "CYP2B6; Donor 3", "value": 3.36}, {"measurement": "CYP2B6 mRNA % Induction Relative to Positive Control", "setting": "CYP2B6; Donor 1, 1000 μM", "value": 100, "unit": "%"}, {"measurement": "CYP2B6 mRNA Fold Change (n = 3) Mean", "setting": "CYP2B6; Donor 1, 1000 μM", "value": 24.4}, {"measurement": "CYP2B6 mRNA % Induction Relative to Positive Control", "setting": "CYP2B6; Donor 2, 1000 μM", "value": 100, "unit": "%"}, {"measurement": "CYP2B6 mRNA Fold Change (n = 3) Mean", "setting": "CYP2B6; Donor 2, 1000 μM", "value": 793}, {"measurement": "CYP2B6 mRNA % Induction Relative to Positive Control", "setting": "CYP2B6; Donor 3, 1000 μM", "value": 100, "unit": "%"}, {"measurement": "CYP2B6 mRNA Fold Change (n = 3) Mean", "setting": "CYP2B6; Donor 3, 1000 μM", "value": 6.85}, {"measurement": "CYP2B6 mRNA fold increase (positive control)", "setting": "CYP2B6; donor 2, positive control", "value": 793, "unit": "fold"}]}]}
